The record followed here is US6541503B2, “Substituted oxindole derivatives as protein tyrosine kinase and as protein serine/threonine kinase inhibitors” (SmithKline Beecham Corporation, priority 1997, dated 2003).

Like-named read-outs stand apart in the source and are kept apart here. Bounds are passed on as bounds.

For assay [1], the target named is T1, UL97 (Human cytomegalovirus, UniProt P16788).
T1 construct: GST; made in house; host or cells: baculovirus vector in Sf9 cells
Briefly: UL97 protein kinase assay, 32P transfer from ATP to histone H2B. Type of assay: biochemical. Here is the method: UL97 was produced as a GST fusion protein from a baculovirus vector expressed in sf9 cells as described by He (He, et al., Journal of Virology 1997, 71, 405-11). UL97 was assayed as a protein kinase using ^32P transfer from ATP to histone H2B with detection of radiolabeled histone bound to phosphocellulose. Assay mixes for testing inhibitors of UL97 activity contained 2 mM [γ^32P]-ATP, 15 mM histone H2B, 50 mM sodiumCHES, pH 9.5, 1 M NaCl, 2 mM dithiothreitol and 10 mM MgCl2. Inhibitors were dissolved in diluted DMSO to give a final DMSO concentration in the reaction of 1% DMSO. After incubation at 20° C., the reactions were terminated by addition of 10 volumes of 75 mM phosphoric acid, 30 mM ATP, 1 mM EDTA, then were spotted onto phosphocellulose filters and washed four times with 75 mM phosphoric acid. Radioactivity was determined by liquid scintillation counting.

Assay [2] relates to RKO colon adenocarcinoma cells. Kind of assay: FACS assay (cell death by flow cytometry), RKO. Format: cell-based, human. Particulars: Homo sapiens, 72 h, read-out: FACS RKO IC50. Here is the method: These assays allow determination of both cell death and changes in cell cycle profile in cells following treatment of the compound. The assay is performend as follows:
1. Cells are incubated in DMEM to which 10% FCS has been added in a humidified incubator at 37° C. and 5% by volume of CO2 in air. The cells are innoculated in 6-well plates at a density of 0.5-5×10^5 cells per well.
2. The test compound is added in serial dilutions 24-36 h after plating in 0.5% DMSO. The plates are then incubated a further 72 h in the presence of the compound. During this time, cells in control cultures undergo at least three cell divisions.
3. After incubation, the media is collected and cells are harvested by trypsinization. The cells and media are pooled and pelleted by centrifugation.
4. The cell pellet is fixed in a final volume of 3 mL of 50% ice cold MeOH and incubated for a minimum of 30 min at −20° C.
5. The cells are pelleted by centrifugation and resuspended in 0.5 mL PBS containing 1%FCS, […] Propidium Iodide (PI) and 5 mg/mL RNase A and incubated 30 min at 37° C. in the dark.
6. The samples are analysed by flow cytometry using the relative incorporation of PI as a measure of DNA content of each cell. The % Dead cells is recorded as % of events with less than 2N DNA.
HDF are normal diploid fibroblast cells. RKO are colon adenocarcinoma cells and MES/SA are […].
(In general: In flow cytometry, cells or beads pass a laser one at a time.)

Assay [3] deals with human diploid fibroblasts (HDF-3). Briefly: G1-S progression assay (BrdU incorporation). Format: cell-based. Here is the method: This assay is designed to determine the ability of compounds to inhibit progression of cells from G1 into S-phase. […] The protocol is as follows:
(1) Grow human diploid fibroblasts (HDF-3) in 100 mm tissue culture dish to confluency. (2) Plate 6-7×10^3 cells/well in a 96 well plate in 100 μl of DMEM. (3) After 16-17 h add various dilutions of test compounds (0.045-100 μM). Dilute compound in DMEM containing DMSO and add 100 μl to each well so that the DMSO conc. is 0.6-0.8% in 200 μl final volume. (4) Two h after addition of compound, add 20 ul of 100 μM BrdU (final conc. 10 μM) Make 100 μM solution in DMEM from 10 mM stock solution. (5) After 4 h, add 200 μl PBS to each well and remove the contents of the wells by inverting the plate and soaking on to the paper towel. Repeat the washing step three times, with 400 ul PBS each time. (6) Fix the cells and denature the DNA by adding 200 μl fixation/denaturation solution to each well for 30-40 min. (7) Remove the fixation/denaturation solution by tapping the plate on the paper towel and add 75 ul of anti BrdU peroxidase antibody to each well. (dilute the antibody to 0.1 U/mL from 15 U/mL stock in PBS containing 1% BSA, Fraction V). Incubate the plate O/N at 4° C. (8) Remove the antibody solution and wash wells four times with 400 μl of PBS. Let the wash solution stay for 3-4 min during each wash. (9) Drain the wells and add 100 μl of chemiluminiscence Elisa reagent (Prepare the reagent 15-20 min before use to bring it to rt by mixing 100 parts of reagent A with 1 part of reagent B). (10) Read the plate in a luminometer. Take 2-3 readings within 6-7 min. Perform the following controls:
Deoxybromouridine (BrdU), anti BrdU peroxidase antibodies, fixation/denaturation solution, chemiluminiscence reagent and BSA Fraction V, were obtained from Boehringer Mannheim. The 96-well white plate with clear bottom were purchased from Corning Costar Corporation. Dulbecco's Modified Eagle Medium containing high glucose, L-glutamine and pyridoxine HCl was obtained from GIBCO BRL.
(In general: Dividing cells build labelled thymidine or BrdU into new DNA.)

Assay [4] addresses CDK1 (Homo sapiens, UniProt P06493). Kind of assay: Cyclin dependent protein kinase substrate phosphorylation assay, CDK1. Type of assay: biochemical. Here is the method:
Cyclin dependent protein kinase assays utilized the peptides Biotin-aminohexyl-[…] and Biotin-aminohexyl-[…]-NH2 as phosphoryl group acceptors. CDK1 and CDK2 were both expressed utilizing a baculovirus expression system and were partially purified to comprise 20-80% of total protein, with no detectable competing reactions present. Typically, assays were performed by incubating either enzyme (0.2-10 nM), with and without inhibitor, one of the two peptide substrates ([…]), [γ-^32P]ATP ([…]), and 10-20 mM Mg^2+ for periods of time generally within the range 10-120 min. Reactions were terminated with 0.2-2 volumes of either 20% acetic acid or 50-100 mM EDTA buffered to pH 7 (substrate consumption<20%). The buffer employed in enzyme assays was either 30 mM HEPES 7.4 containing 0.15 M NaCl and 5% DMSO, the buffer 50 mM MOPS 7.0 containing 0.15 M NaCl and 5% DMSO, or the buffer 100 mM HEPES pH 7.5 containing 0.1 mg /mL BSA and 5% DMSO. Inhibitors were diluted in 100% DMSO prior to addition into the assay. Detection of peptide phosphorylation was accomplished by scintillation counting following either collection of peptide onto phosphocellulose filters (for reactions stopped with acetic acid), collection of peptide in wells of 96 well plates coated with Streptavidin (Pierce) (reactions were stopped with EDTA), or addition of Avidin coated Scintillant impregnated beads (Scintillation Proximity Assays from Amersham, reactions were stopped with EDTA).

The mark [5] stands for this setting: Homo sapiens, Fibroblast; read-out: G1/S Chkpt IC50.
The mark [6] stands for this setting: Homo sapiens, Fibroblast, read-out: G1/S Chkpt IC50.

T1 sequence (P16788 whole entry): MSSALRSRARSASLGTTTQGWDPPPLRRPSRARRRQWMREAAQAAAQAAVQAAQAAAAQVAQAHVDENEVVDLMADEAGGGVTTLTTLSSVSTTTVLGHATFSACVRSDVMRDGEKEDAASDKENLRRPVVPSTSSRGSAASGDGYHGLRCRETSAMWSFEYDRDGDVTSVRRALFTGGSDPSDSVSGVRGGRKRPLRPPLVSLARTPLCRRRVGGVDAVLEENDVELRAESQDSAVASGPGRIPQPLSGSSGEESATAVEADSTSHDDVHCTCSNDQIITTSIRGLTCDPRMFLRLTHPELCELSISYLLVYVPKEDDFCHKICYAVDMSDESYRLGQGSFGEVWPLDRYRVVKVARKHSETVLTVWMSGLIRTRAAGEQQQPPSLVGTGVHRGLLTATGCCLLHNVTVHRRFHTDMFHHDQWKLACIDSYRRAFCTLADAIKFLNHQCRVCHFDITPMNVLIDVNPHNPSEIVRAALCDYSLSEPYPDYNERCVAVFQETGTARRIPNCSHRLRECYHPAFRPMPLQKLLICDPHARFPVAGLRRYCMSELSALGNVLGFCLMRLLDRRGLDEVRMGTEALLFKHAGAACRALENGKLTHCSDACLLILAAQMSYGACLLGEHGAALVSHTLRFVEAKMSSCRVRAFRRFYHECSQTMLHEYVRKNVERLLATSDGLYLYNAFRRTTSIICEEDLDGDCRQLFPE
Chain of CDK1 (P06493 whole entry, species assumed): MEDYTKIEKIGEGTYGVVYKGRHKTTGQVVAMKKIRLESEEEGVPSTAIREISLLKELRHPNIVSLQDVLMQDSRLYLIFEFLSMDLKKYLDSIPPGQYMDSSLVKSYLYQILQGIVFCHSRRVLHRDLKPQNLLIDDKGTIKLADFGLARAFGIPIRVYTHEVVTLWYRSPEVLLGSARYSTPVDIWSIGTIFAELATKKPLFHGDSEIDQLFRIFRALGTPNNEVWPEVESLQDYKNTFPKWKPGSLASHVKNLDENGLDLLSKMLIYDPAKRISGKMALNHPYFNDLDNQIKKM
Chain of CDK1 (P14635 whole entry partner, species assumed): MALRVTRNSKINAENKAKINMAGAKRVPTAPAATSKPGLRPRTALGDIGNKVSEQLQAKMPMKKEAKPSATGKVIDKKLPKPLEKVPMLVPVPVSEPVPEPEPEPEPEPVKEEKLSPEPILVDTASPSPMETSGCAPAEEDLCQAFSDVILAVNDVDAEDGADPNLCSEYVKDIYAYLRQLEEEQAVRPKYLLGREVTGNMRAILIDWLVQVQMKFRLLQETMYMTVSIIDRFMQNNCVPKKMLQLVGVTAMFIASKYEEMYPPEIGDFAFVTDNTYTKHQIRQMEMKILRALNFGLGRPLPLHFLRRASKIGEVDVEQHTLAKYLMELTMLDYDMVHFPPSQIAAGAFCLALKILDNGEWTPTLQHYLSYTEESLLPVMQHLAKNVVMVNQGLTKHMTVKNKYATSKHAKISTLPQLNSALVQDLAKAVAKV

On to `CC(C)(CO)CNS(=O)(=O)c1ccc(NC=C2C(=O)Nc3ccc4ncsc4c32)cc1` [Example 77, N-(3-Hydroxy-2,2-dimethyl-propyl)-4-[(7-oxo-6,7-dihydro-1-thia-3,6-diaza-as-indacen-8-ylidenemethyl)-amino]-benzenesulfonamide], for which the IC50 in assay [1] fell in the range of 1 to 10 nM; in assay [2] (50% cell death), 1100 to 5000 nM; in assay [3] (setting [5]) it was 1100 to 5000 nM; in assay [4] (read-out: CDK1 IC50), 1 to 10 nM.
For `CS(=O)(=O)Cc1ccc(NC=C2C(=O)Nc3ccc4ncsc4c32)cc1` [Example 76, 8-(4-Methylsulfonylmethyl-phenylamino-methylene)-6,8-dihydro-1-thia-3,6-diaza-as-indacen-7-one], the IC50 is 1100 to 5000 nM in assay [2] (50% cell death), 1100 to 5000 nM in assay [3] (setting [5]) and above 100 nM in assay [4] (read-out: CDK1 IC50).
For the molecule `O=C1Nc2ccc3ncsc3c2C1=CNc1ccc(S(=O)(=O)Nc2ccccn2)cc1` [Example 72, 4-[(7-Oxo-6,7-dihydro-1-thia-3,6-diaza-as-indacen-8-ylidenemethyl)-amino]-N-pyridin-2-yl-benzenesulfonamide], the IC50 fell in the range of 11 to 50 nM in assay [1], 1100 to 5000 nM in assay [2], 1100 to 5000 nM in assay [3] (setting [6]) and 51 to 100 nM in assay [4].
In the case of `CNS(=O)(=O)Cc1ccc(NN=C2C(=O)Nc3ccc4ncccc4c32)cc1` [Example 68, N-Methyl-C-{4-[N′-(2-oxo-2,3-dihydro-pyrrolo[3,2-f]quinolin-1-ylidene)-hydrazino]-phenyl}-methanesulfonamide], the IC50 in assay [1] was 11 to 50 nM; in assay [2] it was 1100 to 5000 nM; in assay [3] (setting [6]) it was 1100 to 5000 nM; in assay [4] (read-out: CDK1 IC50), 51 to 100 nM.
Consider `CNS(=O)(=O)Cc1ccc(NN=C2C(=O)Nc3cc(C)c(O)c(C)c32)cc1` [Example 99], for which the IC50 in assay [1] was 1 to 10 nM; in assay [2] (50% cell death), 100 to 500 nM; in assay [3] (setting [5]) it was 1100 to 5000 nM; in assay [4] (read-out: CDK1 IC50), above 100 nM.
